According to BindingDB's records for doi:10.1021/acs.jmedchem.0c01488 (West China Hospital of Sichuan University, 2020):
pIC50: −log10 of the molar value.

What was measured:
[1] = Inhibition of FLT3 ITD mutant in human MOLM13 cells assessed as reduction in cell viability incubated for 72 hrs by MTT assay
[2] = Inhibition of JAK2 V617F mutant in human SET-2 cells assessed as reduction in cell viability incubated for 72 hrs by MTT assay
[3] = Inhibition of JAK2 V617F mutant in mouse BaF3 cells assessed as reduction in cell viability incubated for 72 hrs by MTT assay

SMILES | pIC50 [1] | pIC50 [2] | pIC50 [3]
Cc1cnc(Nc2ccc(N3CCC(N(C)CCO)CC3)c(F)c2)nc1-c1cnn(C(C)C)c1 | 7.14 |  | 
Cc1cnc(Nc2ccc3c(c2)CCN3CCO)nc1-c1cnn(C(C)C)c1 | 5.69 | 5.42 | 5.36
Cc1cnc(Nc2ccc3c(c2)CN(CCO)C3)nc1-c1cnn(C(C)C)c1 | 5.75 |  | 
Cc1cnc(Nc2ccc3c(c2)CCN(CCO)C3)nc1-c1cnn(C(C)C)c1 | 5.90 | 6.49 | 6.37
Cc1cnc(Nc2ccc3c(c2)CCN(CCCO)C3)nc1-c1cnn(C(C)C)c1 | 5.88 | 6.40 | 6.44
CC(C)n1cc(-c2nc(Nc3ccc4c(c3)CCN(C(=O)CO)C4)ncc2F)cn1 | 6.34 | 6.24 | 6.17
Cc1cnc(Nc2ccc3c(c2)CCN(C(=O)Nc2cccc(Cl)c2)C3)nc1-c1cnn(C(C)C)c1 | 5.68 | 5.46 | 5.66
CCNC(=O)N1CCc2cc(Nc3ncc(C)c(-c4cnn(C(C)C)c4)n3)ccc2C1 | 5.97 | 5.63 | 5.72
CC(C)n1cc(-c2nc(Nc3ccc4c(c3)CCN(CCCO)C4)ncc2F)cn1 | 6.34 | 6.51 | 6.41
CCCNC(=O)N1CCc2cc(Nc3ncc(C)c(-c4cnn(C(C)C)c4)n3)ccc2C1 | 5.68 | 5.75 | 5.92
Cc1cnc(Nc2cc3c(cc2F)CN(CCO)CC3)nc1-c1cnn(C(C)C)c1 | < 5.30 | 5.35 | 5.59
CC(C)n1cc(-c2nc(Nc3ccc4c(c3)CCN(CCO)C4)ncc2F)cn1 | 6.26 | 6.19 | 6.12
CC(C)n1cc(-c2nc(Nc3ccc4c(c3)CCN(CCCCO)C4)ncc2F)cn1 | 6.34 | 6.22 | 6.35
CC(C)n1cc(-c2nc(Nc3ccc4c(c3)CCN(CCCCCO)C4)ncc2F)cn1 | 6.45 | 6.31 | 6.38
Cc1cnc(Nc2ccc3c(c2)CCN(CCCCO)C3)nc1-c1cnn(C(C)C)c1 | 6.06 | 6.57 | 6.63
Cc1cnc(Nc2ccc3c(c2)CCN(CCCCCO)C3)nc1-c1cnn(C(C)C)c1 | 6.02 |  | 
CCOCCN1CCc2cc(Nc3ncc(C)c(-c4cnn(C(C)C)c4)n3)ccc2C1 | 6.25 | 6.47 | 6.52
CCCCN1CCc2cc(Nc3ncc(C)c(-c4cnn(C(C)C)c4)n3)ccc2C1 | 6.12 | 6.23 | 6.19
C=CCN1CCc2cc(Nc3ncc(C)c(-c4cnn(C(C)C)c4)n3)ccc2C1 | 6.06 | 6.54 | 6.34
Cc1cnc(Nc2ccc3c(c2)CCN(CC#N)C3)nc1-c1cnn(C(C)C)c1 | 6.19 | 7.14 | 

SMILES | pIC50 [1] | pIC50 [2] | pIC50 [3]
Cc1cnc(Nc2ccc3c(c2)CCN(CCC#N)C3)nc1-c1cnn(C(C)C)c1 | 6.45 | 6.53 | 6.75
C#CCN1CCc2cc(Nc3ncc(C)c(-c4cnn(C(C)C)c4)n3)ccc2C1 | 5.83 |  | 
CC#CCN1CCc2cc(Nc3ncc(C)c(-c4cnn(C(C)C)c4)n3)ccc2C1 | 5.81 | 6.10 | 6.04
COC(=O)/C=C/CN1CCc2cc(Nc3ncc(C)c(-c4cnn(C(C)C)c4)n3)ccc2C1 | 6.30 | 7.85 | 8.00
COC(=O)CCCN1CCc2cc(Nc3ncc(C)c(-c4cnn(C(C)C)c4)n3)ccc2C1 | 5.89 | 5.98 | 6.03
Cc1cnc(Nc2ccc3c(c2)CCN(C(=O)/C=C/C(=O)c2ccccc2)C3)nc1-c1cnn(C(C)C)c1 | 6.34 | 7.28 | 
Cc1ccc(C(=O)/C=C/C(=O)N2CCc3cc(Nc4ncc(C)c(-c5cnn(C(C)C)c5)n4)ccc3C2)cc1 | 6.12 | 7.82 | 7.89
Cc1ccc(C(=O)CCC(=O)N2CCc3cc(Nc4ncc(C)c(-c5cnn(C(C)C)c5)n4)ccc3C2)cc1 | 5.98 | 6.20 | 6.11
Cc1cnc(Nc2ccc3c(c2)CCN(C(=O)/C=C/CN(C)C)C3)nc1-c1cnn(C(C)C)c1 | 6.06 | 7.92 | 
Cc1cnc(Nc2ccc3c(c2)CCN(C(=O)CCCN(C)C)C3)nc1-c1cnn(C(C)C)c1 | 5.83 | 6.01 | 5.61
Cc1cnc(Nc2ccc3c(c2)CCN(C/C=C/C(=O)O)C3)nc1-c1cnn(C(C)C)c1 | 6.07 | 6.48 | 6.89
Cc1cnc(Nc2ccc3c(c2)CCN(C/C=C/C(=O)NCCN2CCCCC2)C3)nc1-c1cnn(C(C)C)c1 | 5.68 | 6.26 | 5.92
Cc1cnc(Nc2ccc3c(c2)CCN(C/C=C/C(=O)NC(C)(C)C)C3)nc1-c1cnn(C(C)C)c1 | 5.98 | 6.21 | 6.84
CCN(CC)C(=O)/C=C/CN1CCc2cc(Nc3ncc(C)c(-c4cnn(C(C)C)c4)n3)ccc2C1 | 6.18 | 6.48 | 6.54
Cc1cnc(Nc2ccc3c(c2)CN(CC#N)CC3)nc1-c1cnn(C(C)C)c1 | 6.37 | 7.02 | 7.12
Cc1cnc(Nc2ccc3c(n2)CCN(CCCO)C3)nc1-c1cnn(C(C)C)c1 | 5.59 | 5.66 | 5.84
Cc1cnc(Nc2ccc3c(c2)CN(C(=O)/C=C/CN(C)C)CC3)nc1-c1cnn(C(C)C)c1 | 6.34 | 7.82 | 7.60
Cc1ccc(C(=O)/C=C/C(=O)N2CCc3ccc(Nc4ncc(C)c(-c5cnn(C(C)C)c5)n4)cc3C2)cc1 | 6.20 |  | 
COC(=O)/C=C/CN1CCc2ccc(Nc3ncc(C)c(-c4cnn(C(C)C)c4)n3)cc2C1 | 6.37 | 7.14 | 6.92
Cc1cnc(Nc2ccc3c(c2)CN(C(=O)/C=C/C(=O)c2ccccc2)CC3)nc1-c1cnn(C(C)C)c1 | 6.27 | 7.37 | 7.21
